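Cells were grown in 96-well plates and exposed to each compound for 48 hours at five concentrations; endpoints were interpolated linearly between bracketing concentrations, or set to the highest concentration if not reached. GI50: concentration for 50% inhibition of growth. The concentration for full growth arrest is given as TGI.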
Tests used:
Test in all cases: inhibition of tumour cell growth, NCI panel, 48 h
[1] = system: A549 NSCLC
[2] = system: BT-549 breast
[3] = system: LOX IMVI melanoma
[4] = system: NCI-H23 lung
[5] = system: NCI-H522 lung
[6] = system: SF-539 CNS
[7] = system: SK-MEL-5 melanoma
[8] = system: SK-OV-3 ovarian
[9] = system: SNB-75 CNS
[10] = system: NCI-H226 lung

Nc1nc2c(s1)CCc1c-2c(Br)n(Cc2ccccc2)c1Br
GI50 [1]: 17.2 µM
TGI [1]: > 100 µM
GI50 [2]: 15.1 µM
TGI [2]: 30.2 µM
GI50 [3]: 3.98 µM
TGI [3]: 19.7 µM
GI50 [4]: 13.8 µM
TGI [4]: 40.8 µM
GI50 [5]: 2.04 µM
TGI [5]: 4.63 µM
GI50 [6]: 15.4 µM
TGI [6]: 29.2 µM
GI50 [7]: 14.3 µM
TGI [7]: 30.2 µM
GI50 [8]: 23.6 µM
TGI [8]: 53.7 µM
GI50 [9]: 14.5 µM
TGI [9]: 33.1 µM

Nc1nc(OCc2cc(Br)cs2)c2[nH]cnc2n1
GI50 [1]: 32.9 µM
TGI [1]: > 100 µM
GI50 [2]: 15.7 µM
TGI [2]: 63.9 µM
GI50 [3]: 25.3 µM
TGI [3]: 98.1 µM
GI50 [10]: 24.6 µM
TGI [10]: > 100 µM
GI50 [4]: 21.8 µM
TGI [4]: > 100 µM
GI50 [5]: 26.8 µM
TGI [5]: > 100 µM
GI50 [6]: 18.2 µM
TGI [6]: 62.6 µM
GI50 [7]: 15.9 µM
TGI [7]: 39.6 µM
GI50 [8]: 21.1 µM
TGI [8]: 57.8 µM
GI50 [9]: 15.7 µM
TGI [9]: 90.2 µM

O=C(c1ccccc1)c1ccc(Oc2ccc([N+](=O)[O-])cc2[N+](=O)[O-])cc1
GI50 [1]: 19.7 µM
TGI [1]: 59.7 µM
GI50 [2]: 3.75 µM
TGI [2]: 40.3 µM
GI50 [3]: 3.06 µM
TGI [3]: 15.1 µM
GI50 [10]: 2.52 µM
TGI [10]: 8.57 µM
GI50 [4]: 4.33 µM
TGI [4]: 54.9 µM
GI50 [5]: 2.51 µM
TGI [5]: 6.53 µM
GI50 [6]: 2.7 µM
TGI [6]: 7.32 µM
GI50 [7]: 2.02 µM
TGI [7]: 4.42 µM
GI50 [8]: 4.09 µM
TGI [8]: 29.4 µM
GI50 [9]: 5.62 µM
TGI [9]: 26.7 µM

COC(=O)C(=O)C(C(=O)C(=O)Nc1nc2ccc(C)cc2s1)c1nc2ccc([N+](=O)[O-])cc2[nH]c1=O (configuration not stated)
TGI [1]: > 100 µM
TGI [2]: > 100 µM
TGI [3]: > 100 µM
TGI [10]: > 100 µM
TGI [4]: > 100 µM
TGI [5]: > 100 µM
TGI [6]: > 100 µM
TGI [7]: > 100 µM
TGI [8]: > 100 µM
TGI [9]: > 100 µM

O=C1Nc2c(C(F)(F)F)cccc2[C@@]1(c1ccc(O)cc1)c1ccc(OC(F)(F)F)cc1
GI50 [1]: 0.0186 µM
TGI [1]: 0.0414 µM
GI50 [2]: < 0.01 µM
TGI [2]: < 0.0132 µM
GI50 [3]: < 0.01 µM
TGI [3]: < 0.0137 µM
GI50 [10]: 0.0108 µM
TGI [10]: 0.0273 µM
GI50 [4]: < 0.01 µM
TGI [4]: < 0.0135 µM
GI50 [5]: < 0.01 µM
TGI [5]: < 0.0194 µM
GI50 [6]: 0.0161 µM
TGI [6]: 0.0446 µM
GI50 [7]: 0.2 µM
TGI [7]: 16.6 µM
GI50 [8]: 0.0415 µM
TGI [8]: 0.38 µM
GI50 [9]: < 0.01 µM
TGI [9]: < 0.0147 µM

Clc1ccc2c(c1)N(c1ncnc3ccc(-c4cnc5[nH]ccc5c4)cc13)CC2
GI50 [1]: 2.61 µM
TGI [1]: 17.7 µM
GI50 [2]: 0.949 µM
TGI [2]: 47.8 µM
GI50 [3]: 0.734 µM
TGI [3]: 10.3 µM
GI50 [10]: 2.76 µM
TGI [10]: 22 µM
GI50 [4]: 3.2 µM
TGI [4]: 52.4 µM
GI50 [5]: 0.819 µM
TGI [5]: 12.5 µM
GI50 [6]: 6.8 µM
TGI [6]: 48.7 µM
GI50 [7]: 3.8 µM
TGI [7]: 26.4 µM
GI50 [8]: 4.03 µM
TGI [8]: 61.4 µM
GI50 [9]: 0.776 µM
TGI [9]: 21.1 µM

O=CNc1ncn[nH]1
TGI [1]: > 100 µM
TGI [2]: > 100 µM
TGI [3]: > 100 µM
TGI [10]: > 100 µM
TGI [4]: > 100 µM
TGI [5]: > 100 µM
TGI [6]: > 100 µM
TGI [7]: > 100 µM
TGI [8]: > 100 µM
TGI [9]: > 100 µM

COc1cc(-c2nc3ccccc3s2)ccc1NC(=O)COc1ccc(Cl)cc1
GI50 [1]: 3.07 µM
TGI [1]: > 100 µM
GI50 [2]: > 100 µM
TGI [2]: > 100 µM
GI50 [3]: 4.69 µM
TGI [3]: > 100 µM
GI50 [10]: 4.31 µM
TGI [10]: 59.2 µM
GI50 [4]: 3.01 µM
TGI [4]: 25.6 µM
GI50 [5]: 2.71 µM
TGI [5]: 12.1 µM
GI50 [6]: 61.6 µM
TGI [6]: > 100 µM
GI50 [7]: 8.68 µM
TGI [7]: > 100 µM
GI50 [8]: 36.5 µM
TGI [8]: > 100 µM
GI50 [9]: 42.9 µM
TGI [9]: > 100 µM

N#Cc1ccccc1NC(=O)C(=O)c1c(O)c2ccccc2oc1=O
TGI [1]: > 100 µM
TGI [2]: > 100 µM
TGI [3]: > 100 µM
TGI [10]: > 100 µM
TGI [4]: > 100 µM
TGI [5]: > 100 µM
TGI [6]: > 100 µM
TGI [7]: > 100 µM
TGI [8]: > 100 µM
TGI [9]: > 100 µM

COc1ccc2c(c1)[n+](=O)c(C(=O)c1ccco1)c(C(F)(F)F)n2[O-]
GI50 [1]: 2.56 µM
TGI [1]: 16.6 µM
GI50 [2]: 2.64 µM
TGI [2]: 18.9 µM
GI50 [3]: 1.19 µM
TGI [3]: 3.59 µM
GI50 [10]: 3.04 µM
TGI [10]: 17.6 µM
GI50 [4]: 2.02 µM
TGI [4]: 5.05 µM
GI50 [5]: 35.6 µM
TGI [5]: > 100 µM
GI50 [6]: 3.41 µM
TGI [6]: 15.6 µM
GI50 [7]: 1.31 µM
TGI [7]: 2.68 µM
GI50 [8]: 3.15 µM
TGI [8]: 25.9 µM
GI50 [9]: 3.83 µM
TGI [9]: 25.6 µM

O=C1c2ccccc2S(=O)(=O)N1CSC(=S)N1CCCCC1
GI50 [1]: > 100 µM
TGI [1]: > 100 µM
GI50 [2]: > 100 µM
TGI [2]: > 100 µM
GI50 [3]: > 100 µM
TGI [3]: > 100 µM
GI50 [10]: > 100 µM
TGI [10]: > 100 µM
GI50 [4]: > 100 µM
TGI [4]: > 100 µM
GI50 [5]: 2.05 µM
TGI [5]: > 100 µM
GI50 [6]: > 100 µM
TGI [6]: > 100 µM
GI50 [7]: 33.2 µM
TGI [7]: > 100 µM
GI50 [8]: > 100 µM
TGI [8]: > 100 µM
GI50 [9]: > 100 µM
TGI [9]: > 100 µM

NC(=O)c1ccc(NN=O)nc1
TGI [1]: > 100 µM
TGI [2]: > 100 µM
GI50 [3]: > 100 µM
TGI [3]: > 100 µM
TGI [10]: > 100 µM
TGI [4]: > 100 µM
TGI [5]: > 100 µM
TGI [6]: > 100 µM
TGI [7]: > 100 µM
TGI [8]: > 100 µM
TGI [9]: > 100 µM

C[C@H](Nc1ncnc2nc[nH]c12)c1cc2ccc(F)cc2nc1-c1ccccn1
GI50 [1]: > 100 µM
TGI [1]: > 100 µM
GI50 [2]: 36.2 µM
TGI [2]: > 100 µM
GI50 [3]: > 86.2 µM
TGI [3]: > 100 µM
GI50 [10]: > 89.4 µM
TGI [10]: > 100 µM
GI50 [4]: > 100 µM
TGI [4]: > 100 µM
GI50 [5]: > 54.1 µM
TGI [5]: > 100 µM
GI50 [6]: > 94.7 µM
TGI [6]: > 100 µM
GI50 [7]: 91.2 µM
TGI [7]: > 100 µM
GI50 [8]: 48.3 µM
TGI [8]: > 100 µM
GI50 [9]: 2.68 µM
TGI [9]: 60.5 µM

CCCCCCCCCCCCCC1=NCCN1CCO
GI50 [1]: 3.52 µM
TGI [1]: > 100 µM
GI50 [2]: 13.4 µM
TGI [2]: 31.8 µM
GI50 [10]: 17.5 µM
TGI [10]: 41.2 µM
GI50 [4]: 8.61 µM
TGI [4]: 31.7 µM
GI50 [5]: 2.52 µM
TGI [5]: 6.13 µM
GI50 [6]: 1.95 µM
TGI [6]: 3.94 µM
GI50 [7]: 3.26 µM
TGI [7]: 11.2 µM
GI50 [8]: 7.04 µM
TGI [8]: 18.3 µM
GI50 [9]: 2.3 µM
TGI [9]: 8.16 µM

Reference: PubChem BioAssay (NCI)
